These results are taken from paper PMC5983823, “Screening of Natural Product Derivatives Identifies Two Structurally Related Flavonoids as Potent Quorum Sensing Inhibitors against Gram-Negative Bacteria” (International Journal of Molecular Sciences, 2018).

The test system of one assay is C. violaceum CV026. Nature of the assay: Violacein extraction assay (QS-mediated violacein production), mutant strain with exogenous autoinducer. It is filed as cell-based, Chromobacterium violaceum. To be noted: Chromobacterium violaceum, CV026, 24 h, read-out: Inhibition-% of violacein production. Here is the method:
(§1) The initial screening of compound library was conducted using two strains of C. violaceum as model bacterium, and two assays (violacein extraction and resazurin staining) in parallel as recently optimized in [26]. For the screening assays, overnight cultures of C. violaceum were diluted in LB broth supplemented with yeast extract (LBY) (0.1% w/v, Sigma Aldrich, St. Louis, MO, USA). Culture of C. violaceum CV026 was further supplemented with 0.5 µM N-(β-ketocaproyl)-L-Homoserine lactone (3-O-C6-(L)-HSL, Cayman chemicals, Ann Arbor, MI, USA) to induce the violacein production. Bacteria (10^6 CFU/mL) was exposed to compounds (400 µM) in a total volume of 200 µL in 96-microtiter well plates (Nunc, Roskilde, Denmark), and incubated at 27 °C, with shaking at 200 rpm for 24 h. DMSO was added in untreated control wells and bacteria-free wells with only LBY were included controls. Additionally, autoinducer-free wells containing only bacteria were included in C. violaceum CV026 plates. Plates were prepared in duplicates. Quercetin dihydrate (Carl Roth GmbH, Karlsruhe, Germany) at 400 µM was used as positive control in violacein extraction assay, and azithromycin (Cayman chemicals, Ann Arbor, MI, USA) at 10 µM in viability assay. Both control compounds were prepared in DMSO. DMSO concentration was 2.5% throughout the experiments.
(§2) After incubation period of 24 h, plates were centrifuged (Allegra™ X-12R Benchtop centrifuge, Beckman Coulter Inc., Fullerton, CA, USA) at 3000 rpm for 10 min to precipitate the violacein. Supernatants were discarded from the wells by pipetting, and pellets were re-suspended in 200 μL of 96% ethanol by scraping and mixing followed by centrifugation (3000 rpm, 10 min). Thereafter, 100 μL of supernatants were transferred to sterile 96-microtiter well plates, and violacein was quantified by reading the optical density at 595 nm using Varioskan Flash. Inhibition of violacein production was expressed as inhibition percentages of the untreated biofilms (Equation (1)):Inhibition-% = [(untreated control OD595 − sample OD595)/(untreated control OD595 − media control OD595)] × 100%(1) in which untreated control = C. violaceum + DMSO, media control = LBY, and sample = C. violaceum treated with a compound. Later on, violacein extraction assay was also utilized for the determination of half inhibitory concentrations of the compounds.

Assay [1] has as its system C. violaceum ATCC 31532. Nature of the assay: Violacein extraction assay (QS-mediated violacein production). It is filed as cell-based, Chromobacterium violaceum. To be noted: Chromobacterium violaceum, ATCC31532, 24 h, read-out: Inhibition-% of violacein production. The protocol:
as §1, §2

A further assay relates to cancer cell lines. Set-up: method as in ref 56 = [56]; 56. National Center for Biotechnology Information PubChem BioAssay Database Available online: https://pubchem.ncbi.nlm.nih.gov/bioassay/924 (accessed on 28 March 2018). To be noted: PubChem Bioassay database ref 56; cited from earlier work.
Assay [2] has as its system C. violaceum ATCC 31532. Nature of the assay: Violacein extraction assay (QS-mediated violacein production). Type of assay: cell-based. The following applies: Chromobacterium violaceum.
For assay [3], the system named is Staphylococcus aureus biofilms. Set-up: method as in PMID 24071942. The following applies: cited from earlier work.
The subject of another assay is C. violaceum. More on the design: method as in PMID 27626397. To be noted: cited from earlier work.

Where two headings read alike, the source gives them in different places.

With `O=c1cc(-c2ccccc2)oc2cc(O)c(O)cc12` [Compound 916, 6,7-dihydroxy-2-phenylchromen-4-one], the inhibition at 400 µM came to 95.7% in the assay with C. violaceum CV026 and 102% in the assay with C. violaceum ATCC 31532 [1]. For the same molecule, the Anti-cancer activity result in the assay on cancer cell lines is reported as “inhibition of cancer cell lines”. The inhibition at 40 µM with C. violaceum ATCC 31532 [2] (ATCC31532, read-out: Inhibition-% of violacein production) is 35.8 ± 1.1%. Further, the “Anti-biofilm activity against S. aureus” value in assay [3] was “preventing biofilm formation and by eradicating pre-formed biofilms”. In addition, the “Anti-QS activity class in earlier screening” value with C. violaceum was “moderately active”.
Regarding `O=c1c(O)c(-c2cccnc2)oc2ccc(Cl)cc12` [Compound 575, 6-chloro-3-hydroxy-2-(3-pyridyl)chromen-4-one], the inhibition at 400 µM was determined as 94.3% in the assay on C. violaceum CV026 and 94.1% in the assay with C. violaceum ATCC 31532 [1] (primary screening, 400 µM, 24 h, C. violaceum ATCC 31532). For the same molecule, in the assay on cancer cell lines, the Anti-cancer activity result was “not active”. Also, the inhibition at 40 µM in the assay on C. violaceum ATCC 31532 [2] (ATCC31532, 40 µM, C. violaceum ATCC 31532, mean ± SD of three independent tests, read-out: Inhibition-% of violacein production) was determined as 60.9 ± 4.1%.
